Key:
[1] = RESOLVE-IT, NCT02704403; cited from earlier work
HepG2 cells = experiment: Toxicity to HepG2 cells in the cytokine expression experiment; assay type: cell-based, human; conditions: 30 μM
Description: (§1) To examine the effect of HSD17B13 inhibitors on inflammatory cytokine expression HepG2 cells were exposed to various concentrations of HSD17B13 inhibitors. Briefly, HepG2 cells, an immortalized human liver cancer cell line, were modified to overexpress HSD17B13. Cells were grown in EMEM (ATCC) with 10% FBS and penicillin/streptomycin. One day prior to transfection 750,000 cells were plated per well in a 6 well plate and cultured overnight. […] of pCMV6-Entry-HSD17B13 or empty vector (Origene) were transfected using Lipofectamine 3000 (Invitrogen) and the cells were cultured for 24 hours. Cells were split into selection media ([…] G418 (Gibco)) and a stable pool was established and verified by qPCR and western blotting using an anti-Flag antibody (Genscript). HepG2 cells overexpressing HSD17B13 or empty vector control, were seeded at 400,000 cells per well in 12 well plates and cultured overnight. Media was replaced with serum-free EMEM and cultured an additional night. […]
(§2) […] RNA quality and concentration were determined on a Nanodrop. cDNA was synthesized from 1 μg RNA using iScript reverse transcription supermix (Biorad) and rtPCR performed with 1 μl cDNA using SsoAdvanced Universal Probes Supermix (Biorad). […]

[2] = target: T1, recombinant human full-length HSD17B13 protein (Homo sapiens, UniProt Q7Z5P4); experiment: HSD17B13 96 luminescence inhibition assay (NAD(P)H-Glo); assay type: biochemical
T1 construct: recombinant human full-length HSD17B13 protein; 6xHis (C); made in house; host or cells: HEK293E-253/FH
T1 sequence (Q7Z5P4 20-300): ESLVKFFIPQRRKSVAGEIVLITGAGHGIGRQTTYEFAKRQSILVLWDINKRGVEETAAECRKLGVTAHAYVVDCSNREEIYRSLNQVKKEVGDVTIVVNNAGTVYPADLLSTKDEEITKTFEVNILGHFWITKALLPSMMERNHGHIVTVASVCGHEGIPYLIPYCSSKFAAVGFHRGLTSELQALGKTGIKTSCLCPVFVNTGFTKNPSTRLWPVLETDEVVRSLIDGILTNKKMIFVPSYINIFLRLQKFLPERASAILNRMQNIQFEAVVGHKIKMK
Description: Compounds of the present disclosure were tested for inhibition of HSD17B13 using the following protocol. Briefly, recombinant human full-length HSD17B13 protein with a 6X-C-terminal His tag was expressed in cell line HEK293E-253/FH and purified using Ni^2+-affinity purification. Enzymatic activity was determined through the production of NADH using the NAD(P)H-Glo Detection System (Promega). The inhibitory activity of test compounds was determined in reactions performed at 30° C. in assay buffer consisting of 25 mM EPPS (8.0), 125 mM NaCl, 0.03% Triton X-100, 0.03% BSA, with […] steroid substrate (1,3,5(10), 7-estratetraen-3, 17b-diol (Steraloids E0580)) added from a 2.5 mM DMSO stock and 500 mM NAD. The final percentage of DMSO was 4.5%. After a one-hour incubation, a 20% volume of luciferase Glo-reagent was added and light units captured on a Victor V Plate Reader (Perkin Elmer).
Concentration-response curves for inhibitors were normalized to control samples containing enzyme only (negative control) and sample without enzyme (positive control). 50% inhibition (IC50) values were determined using a nonlinear least squares fit of the data to a four-parameter equation using Prism 6.0 (GraphPad Software, San Diego).

IL-8 = IL-8 gene expression in HepG2 cells overexpressing HSD17B13 under fatty acid challenge; assay type: cell-based, human
Description: as §1, §2

IL-32 = IL-32 gene expression in HepG2 cells overexpressing HSD17B13 under fatty acid challenge; assay type: cell-based, human
Description: To examine the effect of HSD17B13 inhibitors on inflammatory cytokine expression HepG2 cells were exposed to various concentrations of HSD17B13 inhibitors. Briefly, HepG2 cells, an immortalized human liver cancer cell line, were modified to overexpress HSD17B13. Cells were grown in EMEM (ATCC) with 10% FBS and penicillin/streptomycin. One day prior to transfection 750,000 cells were plated per well in a 6 well plate and cultured overnight. […] of pCMV6-Entry-HSD17B13 or empty vector (Origene) were transfected using Lipofectamine 3000 (Invitrogen) and the cells were cultured for 24 hours. Cells were split into selection media ([…] G418 (Gibco)) and a stable pool was established and verified by qPCR and western blotting using an anti-Flag antibody (Genscript). HepG2 cells overexpressing HSD17B13 or empty vector control, were seeded at 400,000 cells per well in 12 well plates and cultured overnight. Media was replaced with serum-free EMEM and cultured an additional night. A 12 mM fatty acid stock of oleic acid/palmitate at a 2:1 ratio was prepared in 10% fatty acid free BSA (Sigma) by combining 8 mM oleic acid and 4 mM palmitate and rotating overnight at 30° C. The solution was then sonicated for an additional 45 minutes to solubilize.
[…] The cells were lysed in RLT buffer and RNA purified using a Qiagen RNeasy mini kit. RNA quality and concentration were determined on a Nanodrop. cDNA was synthesized from 1 μg RNA using iScript reverse transcription supermix (Biorad) and rtPCR performed with 1 μl cDNA using SsoAdvanced Universal Probes Supermix (Biorad). Taqman probes (Thermo Fisher) were used to look at effects of fatty acids and HSD17B13 inhibitors on IL-8 and IL-32 gene expression using GAPDH as an endogenous control.

[3] = 3 µM, 10 µM, or 30 µM, saturated fatty acid NASH challenge
[4] = 3-hour exposure to 3 μM, 10 μM, or 30 μM, fold change relative to untreated cells

CSc1ccc(C(=O)/C=C/c2cc(C)c(OC(C)(C)C(=O)O)c(C)c2)cc1 [Elafibranor]
Status (as of May 2020) [1]: Completed - failed

CS(=O)(=O)c1cccc(CN2C(=O)S/C(=C\c3c(F)cc(F)c(O)c3F)C2=O)c1 [Compound 5, (Z)-3-(3-(methylsulfonyl)benzyl)-5-(2,4,6-trifluoro-3-hydroxybenzylidene) thiazolidine-2,4-dione]
toxicity to the cells (HepG2 cells): some toxicity | IC50 [2]: ≤ 1000 nM | expression of IL-8 (FIG. 1A) (IL-8; [3]): decreased expression | relative expression levels of IL-8 (IL-8; [4]): decreased | reduction in IL-32 expression (IL-32; 3 μM dose): 60-70% | expression of IL-32 (FIG. 1B) (IL-32; [3]): decreased expression | relative expression levels of IL-32 (IL-32; [4]): decreased

O=C(NCc1cccc(O)c1)c1ccc2cc(F)c(O)cc2n1 [Compound 24, 6-fluoro-7-hydroxy-N-(3-hydroxybenzyl)quinoline-2-carboxamide]
IC50 [2]: 1000 to 5000 nM

CS(=O)(=O)N1CCC(CN2C(=O)S/C(=C\c3c(F)cc(F)c(O)c3F)C2=O)C1 (stereo not shown) [Compound 1, (Z)-3-((1-(methylsulfonyl)pyrrolidin-3-yl)methyl)-5-(2,4,6-trifluoro-3-hydroxybenzylidene)thiazolidine-2,4-dione]
IC50 [2]: > 5000 nM
